Measurements published in patent publication US20190167619A1, “PHARMACEUTICAL FORMULATIONS AND THEIR USE” (SIGNUM BIOSCIENCES, INC., priority 2016, published 2019).

What was measured:
[1] = Stability of a formulation comprising the disodium salt after storage at 25° C., HPLC (Example 2); format: physicochemical
Method: The stability of a formulation comprising the disodium salt of 4-(((R)-1-carboxy-2-(((2E,6E)-3,7,11-trimethyldodeca-2,6,10-trien-1-yl)thio)ethyl)amino)-4-oxobutanoic acid was determined after storage at 25° C. for a period of 4 months, 6 months, 9 months and 12 months. […]

[2] = Stability of a formulation comprising the disodium salt after storage at 5° C., HPLC (Example 3); format: physicochemical
Method: The stability of a formulation comprising the disodium salt of 4-(((R)-1-carboxy-2-(((2E,6E)-3,7,11-trimethyldodeca-2,6,10-trien-1-yl)thio)ethyl)amino)-4-oxobutanoic acid was determined after storage at 5° C. for a period of 1 month, 2 months, 3 months, 6 months, 9 months, 12 months, 18 months, and 24 months. In each case, the percentage of 4-(((R)-1-carboxy-2-(((2E,6E)-3,7,11-trimethyldodeca-2,6,10-trien-1-yl)thio)ethyl)amino)-4-oxobutanoic acid remaining at each time point was determined by use of HPLC. Each of the percentages in the table below are expressed at the weight percentage of the component as compared to the total weight of the composition.

% age of sulfoxide of 4-(((R)-1-carboxy-2-(((2E,6E)-3,7,11-trimethyldodeca-2,6,10-trien-1-yl)thio)ethyl)amino)-4-oxobutanoic acid ([1]; Initial)	% age of sulfoxide of 4-(((R)-1-carboxy-2-(((2E,6E)-3,7,11-trimethyldodeca-2,6,10-trien-1-yl)thio)ethyl)amino)-4-oxobutanoic acid ([1]; after 1 month, storage at 25° C.)	% age of sulfoxide of 4-(((R)-1-carboxy-2-(((2E,6E)-3,7,11-trimethyldodeca-2,6,10-trien-1-yl)thio)ethyl)amino)-4-oxobutanoic acid ([1]; after 3 months, storage at 25° C.)	% age of sulfoxide of 4-(((R)-1-carboxy-2-(((2E,6E)-3,7,11-trimethyldodeca-2,6,10-trien-1-yl)thio)ethyl)amino)-4-oxobutanoic acid ([1]; after 6 months, storage at 25° C.)	% age of sulfoxide of 4-(((R)-1-carboxy-2-(((2E,6E)-3,7,11-trimethyldodeca-2,6,10-trien-1-yl)thio)ethyl)amino)-4-oxobutanoic acid ([1]; after 9 months, storage at 25° C.)	weight percentage of the component as compared to the total weight of the composition ([2]; 1 month, storage at 5° C.)	weight percentage of the component as compared to the total weight of the composition ([2]; 2 months, storage at 5° C.)	weight percentage of the component as compared to the total weight of the composition ([2]; 3 months, storage at 5° C.)	weight percentage of the component as compared to the total weight of the composition ([2]; 6 months, storage at 5° C.)	weight percentage of the component as compared to the total weight of the composition ([2]; 9 months, storage at 5° C.)	weight percentage of the component as compared to the total weight of the composition ([2]; 12 months, storage at 5° C.)	weight percentage of the component as compared to the total weight of the composition ([2]; 18 months, storage at 5° C.)	weight percentage of the component as compared to the total weight of the composition ([2]; 24 months, storage at 5° C.)	weight percentage of the component as compared to the total weight of the composition ([2]; Initial)	SMILES
0.037%	0.031%	0.113%	0.053%	0.134%	–	–	–	–	–	–	–	–	–	CC(C)=CCC/C(C)=C/CC/C(C)=C/CSC[C@H](NC(=O)CCC(=O)O)C(=O)O [4-(((R)-1-carboxy-2-(((2E,6E)-3,7,11-trimethyldodeca-2,6,10-trien-1-yl)thio)ethyl)amino)-4-oxobutanoic acid]
–	–	–	–	–	0.17 weight percentage	0.17 weight percentage	0.17 weight percentage	0.18 weight percentage	0.17 weight percentage	0.17 weight percentage	0.17 weight percentage	0.15 weight percentage	0.17 weight percentage	COC(=O)c1ccc(O)cc1 [Methylparaben]
–	–	–	–	–	0.032 weight percentage	0.032 weight percentage	0.033 weight percentage	0.032 weight percentage	0.033 weight percentage	0.032 weight percentage	0.033 weight percentage	0.030 weight percentage	0.034 weight percentage	CCCOC(=O)c1ccc(O)cc1 [Propylparaben]
